These results are taken from PubChem BioAssay (NCI).

Several values for one entry are separate records, joined by “and”; a condition that tells them apart may be missing. Equal values may be shown once.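 1) Cells in 96-well plates. 2) Compound, 48 h, 5 concentrations. 3) Linear interpolation between surrounding doses. 4) Unreached endpoint = highest concentration. GI50 = concentration required for 50% inhibition of growth. Definition used: TGI = concentration required for complete inhibition of growth.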

Test systems include HCT-15 colon; MDA-MB-435; SN12C renal; PC-3 prostate; M14 melanoma; RPMI-8226 leukemia; HCT-116 colon; SNB-75 CNS.
Common to all, as to assay: NCI-60 cell line screen, 48 h

Take `O=c1[nH]c(-c2cccc(F)c2)cc2cc(F)ccc12`: the GI50 was 0.119 µM in the experiment with HCT-15 colon; 0.0279 µM in the experiment on MDA-MB-435; 1.31 µM with SN12C renal; 0.391 µM in the experiment on PC-3 prostate; 0.16 µM in the experiment on M14 melanoma; 0.355 µM in the experiment with RPMI-8226 leukemia. The GI50 is 0.195 µM with HCT-116 colon and 0.211 µM in the experiment on SNB-75 CNS. Moreover, the TGI is over 100 µM in the experiment on HCT-15 colon; 0.0797 µM in the experiment with MDA-MB-435; over 100 µM in the experiment with SN12C renal; over 100 µM in the experiment with PC-3 prostate; over 100 µM with M14 melanoma; over 100 µM in the experiment on RPMI-8226 leukemia. Further, the TGI with HCT-116 colon and in the experiment with SNB-75 CNS was over 100 µM each time.

Regarding `Cc1cc(C(=O)CSC(=S)SC(C)(C)C)ccc1Cl`, the TGI with HCT-15 colon was determined as 57.6 µM; in the experiment with MDA-MB-435, 91.1 µM; in the experiment on SN12C renal, 43.6 µM; with PC-3 prostate, 95.8 µM; with M14 melanoma, 30.4 µM; with RPMI-8226 leukemia it was 52.1 µM. The TGI in the experiment on HCT-116 colon amounted to 42.3 µM; in the experiment on SNB-75 CNS, 54.3 µM.

As to `CN(C)CCN1CCC(Cc2ccccc2)CC1`, the GI50 in the experiment with HCT-15 colon, with MDA-MB-435, in the experiment with SN12C renal, in the experiment on PC-3 prostate, in the experiment with M14 melanoma and in the experiment on RPMI-8226 leukemia was over 80 µM in each case. Moreover, the GI50 with HCT-116 colon and in the experiment on SNB-75 CNS was over 80 µM throughout. Besides, the TGI in the experiment on HCT-15 colon, in the experiment on MDA-MB-435, with SN12C renal, in the experiment on PC-3 prostate, in the experiment on M14 melanoma and in the experiment with RPMI-8226 leukemia was over 80 µM throughout. The TGI in the experiment with HCT-116 colon and in the experiment with SNB-75 CNS was over 80 µM throughout.

Consider `NC(=O)c1cc(I)ccc1NC(=O)/C=C/c1ccccc1`, for which the GI50 is 0.587 µM in the experiment with HCT-15 colon; 0.192 µM with MDA-MB-435; 0.69 µM in the experiment with SN12C renal; 0.605 µM in the experiment on PC-3 prostate; 0.389 µM in the experiment with M14 melanoma; 0.357 µM with RPMI-8226 leukemia. For the same compound, the GI50 in the experiment with HCT-116 colon is 0.475 µM; with SNB-75 CNS, 0.316 µM. Also, the TGI in the experiment on HCT-15 colon was over 100 µM; with MDA-MB-435 it was 0.445 µM; with SN12C renal, over 63.4 µM; in the experiment with PC-3 prostate, over 100 µM; in the experiment with M14 melanoma, over 100 µM; in the experiment on RPMI-8226 leukemia, 4.96 µM. In addition, the TGI in the experiment with HCT-116 colon is over 40.3 µM; with SNB-75 CNS, 8.68 µM.

Consider `COC(=O)C1=CN(CC2=CC(=O)C(C)=CC2=O)C=C(C(=O)OC)C1c1ccccc1OC`, for which the GI50 with HCT-15 colon is 18.9 µM; in the experiment on MDA-MB-435, 21.8 µM; in the experiment with SN12C renal it was 14.8 µM; in the experiment with PC-3 prostate it was 14.9 µM; in the experiment on M14 melanoma it was 17.3 µM; with RPMI-8226 leukemia it was 10.3 µM. Further, the GI50 with HCT-116 colon is 22.8 µM; in the experiment on SNB-75 CNS, over 100 µM. Also, the TGI in the experiment on HCT-15 colon is 39.2 µM; in the experiment with MDA-MB-435 it was over 53.7 µM; in the experiment on SN12C renal, 32.9 µM; in the experiment on PC-3 prostate, 29.8 µM; in the experiment on M14 melanoma it was 32.7 µM; with RPMI-8226 leukemia, 40.7 µM. Further, the results for the TGI in the experiment with HCT-116 colon and in the experiment on SNB-75 CNS were 66 µM and over 100 µM, respectively.

Consider `CCN(Cc1c(F)cccc1OC)c1ccc(CO)c(Cl)c1`, for which the GI50 was 12.8 µM in the experiment with HCT-15 colon; 16 µM in the experiment with MDA-MB-435; 12.8 µM in the experiment on SN12C renal; 17.1 µM in the experiment with PC-3 prostate; 19.7 µM in the experiment with M14 melanoma; 1.44 µM in the experiment on RPMI-8226 leukemia. Moreover, the GI50 in the experiment on HCT-116 colon is 0.0546 µM; in the experiment on SNB-75 CNS it was 14.5 µM. For the same compound, the TGI in the experiment on HCT-15 colon is 41.5 µM; in the experiment on MDA-MB-435, 39 µM; with SN12C renal, 26 µM; in the experiment on PC-3 prostate, 58.4 µM; in the experiment with M14 melanoma, 47.8 µM; in the experiment on RPMI-8226 leukemia, 23.1 µM. Also, the TGI is over 37.2 µM with HCT-116 colon and 46.2 µM with SNB-75 CNS.

In the case of `NNc1ncnc2nc[nH]c12`, the GI50 was 4.58 µM in the experiment on HCT-15 colon; 5.57 µM in the experiment on MDA-MB-435; 7.33 µM with SN12C renal; 6.07 µM in the experiment on PC-3 prostate; 2.76 µM in the experiment with M14 melanoma; 2.09 µM in the experiment on RPMI-8226 leukemia. Also, the GI50 with HCT-116 colon was 2.25 µM; in the experiment on SNB-75 CNS it was 24.7 µM. For the same compound, the TGI in the experiment on HCT-15 colon is over 100 µM; in the experiment with MDA-MB-435 it was over 100 µM; in the experiment on SN12C renal, over 100 µM; with PC-3 prostate, over 100 µM; in the experiment with M14 melanoma, over 100 µM; in the experiment with RPMI-8226 leukemia, 17.1 µM. The TGI was 15.9 µM in the experiment on HCT-116 colon and over 100 µM in the experiment on SNB-75 CNS.

With `O=[N+]([O-])c1ccccc1N=Nc1c(O)[nH]c2c(Cl)cc(Cl)cc12`, the TGI in the experiment with HCT-15 colon, with MDA-MB-435, in the experiment on SN12C renal, in the experiment on PC-3 prostate, in the experiment with M14 melanoma and in the experiment with RPMI-8226 leukemia was over 100 µM each time. The values for the TGI with HCT-116 colon and in the experiment on SNB-75 CNS were over 100 µM and 25.6 µM, respectively.

As for `CCn1cc(-c2ccnc3[nH]c(-c4cccc(CN(C)C)c4)cc23)c(-c2ccc(NC(=O)N(C)C)cc2)n1`, the GI50 was 2.85 µM and 3.15 µM in the experiment with HCT-15 colon; 4.77 µM and > 10 µM in the experiment on MDA-MB-435; 1.38 µM and 0.994 µM with SN12C renal; 1.46 µM and 3.02 µM in the experiment with PC-3 prostate; 1.91 µM and 2.31 µM with M14 melanoma; 1.69 µM and 1.32 µM in the experiment on RPMI-8226 leukemia. Also, the GI50 was 0.322 µM and 0.455 µM with HCT-116 colon; 0.217 µM and 0.461 µM with SNB-75 CNS. For the same compound, the TGI in the experiment on HCT-15 colon was 27.2 µM and > 10 µM; in the experiment on MDA-MB-435, 21.4 µM and > 10 µM; in the experiment on SN12C renal, over 57.8 µM; in the experiment with PC-3 prostate it was 27 µM and > 10 µM; in the experiment on M14 melanoma, 16.9 µM and > 10 µM; with RPMI-8226 leukemia, 15.6 µM and > 10 µM. Also, the TGI was 17.7 µM and > 10 µM in the experiment with HCT-116 colon; 2.38 µM and 3.42 µM with SNB-75 CNS.

For the compound `N#CC(I)CS(=O)(=O)c1ccccc1` (stereo unspecified), the GI50 in the experiment on HCT-15 colon was 5.48 µM; in the experiment on MDA-MB-435, 17.6 µM; with SN12C renal, 16.1 µM; in the experiment with PC-3 prostate, 17 µM; in the experiment on M14 melanoma, 14.6 µM; in the experiment on RPMI-8226 leukemia, 17.5 µM. The GI50 was 1.66 µM in the experiment with HCT-116 colon and 15.6 µM in the experiment on SNB-75 CNS. The TGI in the experiment with HCT-15 colon is 19.4 µM; with MDA-MB-435, 34.5 µM; in the experiment on SN12C renal, 29.9 µM; with PC-3 prostate it was 32.5 µM; with M14 melanoma, 28.4 µM; with RPMI-8226 leukemia, 41.4 µM. In addition, the TGI with HCT-116 colon turned out to be 3.11 µM; with SNB-75 CNS it was 36 µM.

Consider `COc1ccc(CNc2c3ccccc3nc3ccccc23)cc1F`, for which the GI50 is 2.45 µM in the experiment with HCT-15 colon; 2.9 µM in the experiment on MDA-MB-435; 2.93 µM in the experiment on SN12C renal; 3.14 µM in the experiment on PC-3 prostate; 1.79 µM in the experiment with M14 melanoma; 2.64 µM in the experiment with RPMI-8226 leukemia. In addition, the GI50 was 2.92 µM in the experiment with HCT-116 colon and 3.21 µM in the experiment on SNB-75 CNS. Moreover, the TGI in the experiment with HCT-15 colon was 7.8 µM; in the experiment with SN12C renal, 11.9 µM; with PC-3 prostate, 12 µM; in the experiment with M14 melanoma it was 3.59 µM; in the experiment with RPMI-8226 leukemia, 7.25 µM; with HCT-116 colon it was 12.3 µM. In the experiment on SNB-75 CNS, the TGI stood at 15.2 µM.

As for `CCCCCCn1c(-c2ccc(C(=O)O/N=C(\N)c3ccc4c(c3)OCO4)cc2)nc(-c2ccccc2)c1-c1ccccc1`, the GI50 in the experiment with HCT-15 colon is 1.61 µM; in the experiment on MDA-MB-435 it was 1.77 µM; in the experiment with SN12C renal it was 1.87 µM; in the experiment on PC-3 prostate, 2.62 µM; in the experiment on M14 melanoma, 3.75 µM; in the experiment on RPMI-8226 leukemia it was 1.94 µM. For the same compound, the GI50 with HCT-116 colon is 1.59 µM; in the experiment on SNB-75 CNS, 1.7 µM. Besides, the TGI in the experiment with HCT-15 colon amounted to 3.34 µM; in the experiment with MDA-MB-435, 3.35 µM; in the experiment on SN12C renal, 4.09 µM; with PC-3 prostate it was 11.3 µM; with M14 melanoma, 22.1 µM; with RPMI-8226 leukemia it was 5.25 µM. The TGI with HCT-116 colon stood at 3.34 µM; in the experiment with SNB-75 CNS, 4.9 µM.

As to `Nc1nc(Cl)nc2c1ncn2C1CC(O)C(CO)O1` (stereo unspecified), the TGI was over 100 µM in the experiment on HCT-15 colon; over 100 µM in the experiment with MDA-MB-435; over 100 µM with SN12C renal; over 100 µM in the experiment on PC-3 prostate; 0.509 µM in the experiment with M14 melanoma; over 100 µM with RPMI-8226 leukemia. For the same compound, the TGI with HCT-116 colon was over 100 µM; in the experiment with SNB-75 CNS, over 91.9 µM. In addition, the GI50 in the experiment on MDA-MB-435 is 0.54 µM; with PC-3 prostate, over 100 µM; in the experiment on M14 melanoma, 0.186 µM.

As to `O=c1cccc(C#CC#C[C@@H]2O[C@H]2CO)o1`, the GI50 was 1.42 µM in the experiment with HCT-15 colon; 2.12 µM with MDA-MB-435; 0.465 µM in the experiment with SN12C renal; 1.82 µM in the experiment with PC-3 prostate; 0.414 µM in the experiment with M14 melanoma; 1.7 µM in the experiment with RPMI-8226 leukemia. Besides, the GI50 is 0.274 µM with HCT-116 colon and 0.434 µM with SNB-75 CNS. In addition, the TGI with HCT-15 colon is 3.14 µM; in the experiment on MDA-MB-435, 4.56 µM; in the experiment on SN12C renal, 0.915 µM; in the experiment with PC-3 prostate, 4.1 µM; in the experiment on RPMI-8226 leukemia it was 5.49 µM; in the experiment with SNB-75 CNS it was 4.07 µM.

`CCOC(=O)c1c(C)c2c(n1Cc1ccccc1)CSCC2=O`: the GI50 in the experiment with HCT-15 colon was 19.7 µM; with MDA-MB-435, 17.3 µM; in the experiment on SN12C renal, 26 µM; with PC-3 prostate, 13.6 µM; with M14 melanoma, 20 µM; in the experiment on RPMI-8226 leukemia it was 14.4 µM. Further, the GI50 in the experiment on HCT-116 colon is 11.8 µM; in the experiment on SNB-75 CNS, 18.4 µM. Moreover, the TGI with HCT-15 colon was over 100 µM; in the experiment on MDA-MB-435, 39.1 µM; in the experiment on SN12C renal, over 100 µM; in the experiment on PC-3 prostate it was 68.1 µM; in the experiment with M14 melanoma it was 56.3 µM; in the experiment with RPMI-8226 leukemia it was over 100 µM. Also, the TGI is 31.9 µM in the experiment on HCT-116 colon and over 100 µM with SNB-75 CNS.
